One series concerns the target proteasome-bound USP14 (Homo sapiens, UniProt P54578). Description: Ub-AMC hydrolysis assay, proteasome-activated USP14.
The target in another series is T1, IsoT (Homo sapiens, UniProt P45974).
T1 construct: made in house
T1 sequence (P45974 1-858): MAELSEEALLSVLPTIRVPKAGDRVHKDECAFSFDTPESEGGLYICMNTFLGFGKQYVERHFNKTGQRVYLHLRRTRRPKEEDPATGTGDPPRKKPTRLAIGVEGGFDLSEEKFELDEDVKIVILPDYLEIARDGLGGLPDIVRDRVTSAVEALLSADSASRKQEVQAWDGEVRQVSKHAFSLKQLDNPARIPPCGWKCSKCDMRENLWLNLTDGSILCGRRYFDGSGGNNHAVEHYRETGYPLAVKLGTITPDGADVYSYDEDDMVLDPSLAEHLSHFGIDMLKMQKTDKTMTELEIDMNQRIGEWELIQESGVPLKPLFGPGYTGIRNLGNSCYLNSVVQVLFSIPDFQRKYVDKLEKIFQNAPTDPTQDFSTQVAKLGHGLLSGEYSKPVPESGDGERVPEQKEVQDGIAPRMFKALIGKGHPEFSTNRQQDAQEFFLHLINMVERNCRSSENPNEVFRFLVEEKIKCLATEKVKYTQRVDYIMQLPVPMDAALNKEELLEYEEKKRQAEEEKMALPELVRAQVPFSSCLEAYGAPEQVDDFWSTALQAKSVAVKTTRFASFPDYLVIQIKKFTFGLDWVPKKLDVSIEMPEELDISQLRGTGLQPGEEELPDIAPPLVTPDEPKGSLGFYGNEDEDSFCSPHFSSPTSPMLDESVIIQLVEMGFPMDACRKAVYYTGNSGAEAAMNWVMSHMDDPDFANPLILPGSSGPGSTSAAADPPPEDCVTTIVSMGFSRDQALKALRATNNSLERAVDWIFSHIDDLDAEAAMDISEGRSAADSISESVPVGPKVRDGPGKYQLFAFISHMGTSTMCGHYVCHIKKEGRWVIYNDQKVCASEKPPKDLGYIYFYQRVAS
The experiment in a line: Ub-AMC hydrolysis assay, IsoT. The class given is biochemical. Particulars: 1 μM Ub-AMC, 10 nM IsoT. The source says: Ub-AMC hydrolysis activity of IsoT.

The target of the next series is T2, USP14 (Homo sapiens, UniProt P54578).
T2 construct: Glutathione S-transferase (GST)-tagged full-length USP14; GST (N); made in house
The experiment in a line: Kinetic analysis (Vm, Km) of Ub-AMC hydrolysis by USP14. It counts as biochemical. Conditions: Km varied, Vm unchanged with inhibitor concentration. How it is done: Menten plot of the concentration-dependence of Ub-AMC (1-48 μM) hydrolysis in the presence
The data were fit to a curve by nonlinear regression
(§1) (1 picture or pasted object on this page, not shown here)

Series [1] concerns the target T3, USP14 Y436A (Homo sapiens, UniProt P54578, Y436A). The experiment in a line: In vitro Ub-PA assay, USP14 Y436A mutant. It counts as binding. On the set-up: catalytic domain (residues 96–494) of USP14 were cloned into the pGEX-6P-1 vector; GST (N); made in house.
Target sequence in this assay (P54578 96-494 Y436A): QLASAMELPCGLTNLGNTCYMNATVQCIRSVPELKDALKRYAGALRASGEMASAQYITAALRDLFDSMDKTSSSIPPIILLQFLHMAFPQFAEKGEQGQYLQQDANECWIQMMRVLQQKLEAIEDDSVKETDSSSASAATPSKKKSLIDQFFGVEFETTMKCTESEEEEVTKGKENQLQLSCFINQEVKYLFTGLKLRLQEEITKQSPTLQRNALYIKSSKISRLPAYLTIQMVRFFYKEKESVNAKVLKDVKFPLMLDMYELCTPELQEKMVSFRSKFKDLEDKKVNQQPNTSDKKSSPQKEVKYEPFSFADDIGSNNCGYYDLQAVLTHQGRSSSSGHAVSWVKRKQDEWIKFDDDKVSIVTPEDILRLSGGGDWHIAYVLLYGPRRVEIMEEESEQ
Another series is described as follows: Solubility. The class given is physicochemical. Particulars: qualitative.
For series [2], the target named is T4, USP14 H426E (Homo sapiens, UniProt P54578, H426E). The experiment in a line: In vitro Ub-PA assay, USP14 H426E mutant. The class given is binding. On the set-up: catalytic domain (residues 96–494) of USP14 were cloned into the pGEX-6P-1 vector; GST (N); made in house.
Target sequence in this assay (P54578 96-494 H426E): as the sequence (P54578 96-494 Y436A) above, with H331E, A341Y counted along it
Series [3] deals with T4, USP14 H426E. The experiment in a line: Ub-AMC hydrolysis assay, USP14 H426E mutant. Set-up: Glutathione S-transferase (GST)-tagged full-length USP14; GST (N); made in house. Particulars: 15 μM compound. It counts as biochemical.
Text: (§2) Supplementary information, Fig. S3 Structural and biochemical analyses of the three […]
(§3) (a) H426 of USP14 forms a hydrogen bind with R74 of Ub, while Y476 forms a hydrogen bound with D199. (b) The Y476K, Y476R and D199A point mutations all abolish the formation of USP14/Ub-PA complex. The result was visualized by SDS-PAGE and Coomassie blue staining. (c-f) Linear kinetics of Ub-AMC hydrolysis by USP14 WT, H426E, Y436A and […]
(§4) curves have R2>0.99. Error bars represent SDs.
as §1

A further series has as its target T5, USP7 F409A (Homo sapiens, UniProt Q93009, F409A).
T5 construct: made in house
The experiment in a line: Ub-AMC hydrolysis assay, USP7 F409A. Conditions: 100 μM compound. It counts as biochemical. The source says: To explain the selectivity of IU1, we first compared the sequence conservation among the USP family. USP14 shares homology with USP2, IsoT, USP7, and USP15, ranging from 28% to 35%, in the catalytic domain. […] First, we compared the structure of USP14^CAT-IU1 with that of apo USP7 (Fig. 3a, b). H426 and Y436 in USP14 aligned well with the corresponding residues in USP7. […] Consistent with this scenario, when we compared the primary sequence and structure of USP14^CAT-IU1 with UCH-L1 and UCH-L3, neither the primary sequence nor the structure of USP14 aligned well with UCH-L1 or UCH-L3 (Fig. 3e, f).
(§5) Linear kinetics of Ub-AMC hydrolysis are shown on the left, and the results of the statistical analysis are shown on the right. […] Error bars represent SDs. […] All the results were visualized by SDS-PAGE and Coomassie blue staining

The target of another series is T6, UCH-L3 (Homo sapiens, UniProt P15374).
T6 construct: made in house
T6 sequence (P15374 1-230): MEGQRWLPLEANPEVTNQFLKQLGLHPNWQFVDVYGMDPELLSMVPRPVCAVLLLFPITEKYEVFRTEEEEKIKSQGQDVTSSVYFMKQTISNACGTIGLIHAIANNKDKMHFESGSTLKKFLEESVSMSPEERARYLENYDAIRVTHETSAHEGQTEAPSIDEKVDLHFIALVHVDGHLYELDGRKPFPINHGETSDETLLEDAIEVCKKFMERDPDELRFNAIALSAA
The experiment in a line: In vitro Ub-PA assay, UCH-L3. It counts as binding. Particulars: 5 mM compound, 3 μM DUB protein, 12 μM Ub-PA. How it is done:
as §5
(§6) For Ub-PA binding, 3 μM DUB protein (USP14^CAT, USP7^CAT, UCH-L1, or UCH-L3) was mixed with 12 μM Ub-PA for at least 1 h at room temperature in a reaction system containing 25 mM Tris-HCl (pH 7.5) and 150 mM NaCl. […] The DMSO concentration should be no more than 10% (v/v). All the samples were analyzed by SDS-PAGE, and the results are shown.

For another series, the target named is T7, USP7 (Homo sapiens, UniProt Q93009).
T7 construct: 3 μM DUB protein (USP14^CAT, USP7^CAT, UCH-L1, or UCH-L3); made in house
The experiment in a line: In vitro Ub-PA assay, USP7. Conditions: 5 mM compound, 3 μM DUB protein, 12 μM Ub-PA. The class given is binding. How it is done:
as §5, §6

The next series deals with T8, USP14 Y476A (Homo sapiens, UniProt P54578, Y476A).
T8 construct: Glutathione S-transferase (GST)-tagged full-length USP14; GST (N); made in house
Description: Ub-AMC hydrolysis assay, USP14 Y476A mutant. The class given is biochemical. Conditions: 15 μM compound.
Text: as §2, §3, §4, §1

In series [4] the target is T3, USP14 Y436A. The experiment in a line: Ub-AMC hydrolysis assay, USP14 Y436A mutant. It counts as biochemical. On the set-up: Glutathione S-transferase (GST)-tagged full-length USP14; GST (N); made in house. Particulars: 15 μM compound.
Text: as §2, §3, §4, §1

A further series addresses T9, USP14^CAT (Homo sapiens, UniProt P54578).
T9 construct: catalytic domain (residues 96–494) of USP14 were cloned into the pGEX-6P-1 vector; GST (N, cleaved yes); made in house
The experiment in a line: In vitro Ub-PA assay, USP14^CAT. It counts as binding. Conditions: 5 mM compound, 3 μM USP14^CAT, preincubation 1 h 25 °C, 12 μM Ub-PA. How it is done:
All the results were visualized by SDS-PAGE and Coomassie blue staining. Ub-PA ubiquitin-propargylamide
We then turned to the biochemical Ub-PA (ubiquitin-propargylamide) assay. […] The covalent attachment of Ub-PA (8 kD) to USP14^CAT (45 kD) produced the novel USP14/Ub-PA complex with an increased molecular weight (53 kD).
as §6

Another series addresses T10, UCH-L1 (Homo sapiens, UniProt P09936).
T10 construct: made in house
T10 sequence (P09936 1-223): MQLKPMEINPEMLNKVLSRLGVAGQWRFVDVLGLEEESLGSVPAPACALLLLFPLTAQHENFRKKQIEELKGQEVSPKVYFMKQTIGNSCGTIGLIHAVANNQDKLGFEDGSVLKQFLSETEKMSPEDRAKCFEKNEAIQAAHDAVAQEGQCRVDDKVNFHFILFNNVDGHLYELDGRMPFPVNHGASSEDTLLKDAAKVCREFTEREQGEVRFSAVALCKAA
The experiment in a line: In vitro Ub-PA assay, UCH-L1. Particulars: 5 mM compound, 3 μM DUB protein, 12 μM Ub-PA. The class given is binding. How it is done:
as §5, §6

Molecules are shown by their SMILES.

T5 sequence (Q93009 whole entry F409A): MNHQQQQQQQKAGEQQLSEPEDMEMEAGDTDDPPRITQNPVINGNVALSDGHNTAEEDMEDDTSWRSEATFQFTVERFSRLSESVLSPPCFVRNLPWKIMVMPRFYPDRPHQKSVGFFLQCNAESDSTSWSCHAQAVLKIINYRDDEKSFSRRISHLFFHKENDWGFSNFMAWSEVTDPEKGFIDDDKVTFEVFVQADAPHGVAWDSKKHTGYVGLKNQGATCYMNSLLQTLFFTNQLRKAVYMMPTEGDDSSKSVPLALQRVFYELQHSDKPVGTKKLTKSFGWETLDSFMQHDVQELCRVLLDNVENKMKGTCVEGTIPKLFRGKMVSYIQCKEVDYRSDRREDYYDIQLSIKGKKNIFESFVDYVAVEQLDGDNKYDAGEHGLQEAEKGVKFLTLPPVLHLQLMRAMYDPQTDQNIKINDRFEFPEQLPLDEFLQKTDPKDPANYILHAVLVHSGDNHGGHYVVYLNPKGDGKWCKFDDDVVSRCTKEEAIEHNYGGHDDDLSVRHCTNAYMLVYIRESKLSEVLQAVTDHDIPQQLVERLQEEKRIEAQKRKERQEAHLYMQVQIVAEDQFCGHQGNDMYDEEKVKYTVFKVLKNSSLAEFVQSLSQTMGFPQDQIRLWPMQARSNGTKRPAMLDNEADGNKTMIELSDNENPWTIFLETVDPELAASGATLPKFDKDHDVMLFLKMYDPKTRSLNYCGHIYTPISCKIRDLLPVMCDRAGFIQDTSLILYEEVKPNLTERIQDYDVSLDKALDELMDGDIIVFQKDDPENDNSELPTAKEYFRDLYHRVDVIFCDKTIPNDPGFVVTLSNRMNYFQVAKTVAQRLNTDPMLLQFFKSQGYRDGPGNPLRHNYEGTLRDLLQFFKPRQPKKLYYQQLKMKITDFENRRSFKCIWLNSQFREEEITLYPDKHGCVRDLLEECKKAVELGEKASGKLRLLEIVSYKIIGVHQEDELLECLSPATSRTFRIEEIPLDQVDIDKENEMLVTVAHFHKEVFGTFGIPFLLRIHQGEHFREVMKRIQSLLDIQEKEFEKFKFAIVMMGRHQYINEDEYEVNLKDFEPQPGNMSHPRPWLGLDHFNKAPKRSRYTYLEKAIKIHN
T9 sequence (P54578 96-494): as the sequence (P54578 96-494 Y436A) above, with A341Y counted along it
T7 sequence (Q93009 214-521 limits assumed): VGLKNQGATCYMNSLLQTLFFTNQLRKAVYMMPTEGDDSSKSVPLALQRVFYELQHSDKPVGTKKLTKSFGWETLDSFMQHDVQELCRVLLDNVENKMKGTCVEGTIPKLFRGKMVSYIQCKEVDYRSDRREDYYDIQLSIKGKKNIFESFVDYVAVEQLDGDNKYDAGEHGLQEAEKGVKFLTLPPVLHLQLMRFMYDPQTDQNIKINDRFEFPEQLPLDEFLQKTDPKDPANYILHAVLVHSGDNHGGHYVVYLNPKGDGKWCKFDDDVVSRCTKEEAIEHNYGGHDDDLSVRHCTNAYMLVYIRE
Description for proteasome-bound USP14: It was used to measure the deubiquitinating activity of USP14 variants. The deubiquitination assay was performed by following a published protocol.[7] […] To start the reaction, 1 μM Ub-AMC was added to the system. […] Fluorescence intensity was recorded every 30 s for 15 min. Each experiment was repeated three times, and the average value was calculated.
curves for small-molecule-mediated inhibition of the Ub-AMC hydrolysis activity of
1 nM proteasome. (d-f) Dose-response curves for small-molecule-mediated inhibition of the
Ub-AMC hydrolysis activity of IsoT. The reaction system contained 1 μM Ub-AMC and 10
nM IsoT. All the values correspond to the averages of triplicate experiments.

With `Cc1cc(C(=O)CN2CCCCC2)c(C)n1-c1ccc(Cl)cc1` [IU1-47], the IsoT/USP14 at proteasome-bound USP14 (ratio of IC50 values IsoT/USP14) came to 42.85. Also, the concentration for half-maximal inhibition (IC50) – broadly, the concentration that inhibits the measured activity by half – came to 680 nM at proteasome-bound USP14 (read-out: IC50 USP14, 1 μM Ub-AMC, 15 nM USP14, 1 nM proteasome) and 29.1 µM on IsoT.

Take `Cc1cc(C(=O)CN2CCC(O)CC2)c(C)n1-c1ccc(C#N)cc1` [IU1-248, 1-[1-(4-cyanophenyl)-2,5-dimethyl-1H-pyrrol-3-yl]-2-(4-hydroxyl) piperidylethan-1-one]: the “Mode of inhibition of USP14” value on USP14 is on record as “competitive mechanism”. Also, the “Inhibition of Ub-PA binding to USP14 Y436A” value at USP14 Y436A [1] (2.5 mM IU1-248) is recorded as “abolished the inhibitory effect”. Moreover, on IsoT, 21.5 µM corresponded to half-maximal inhibition (IC50). Moreover, the Solubility result in the series “Solubility” is “significantly improved solubility”. Besides, the “Inhibition of Ub-PA binding to USP14 H426E” value on USP14 H426E [2] (2.5 mM IU1-248) is recorded as “abolished the inhibitory effect”.

Regarding `Cc1cc(C(=O)CN2CCCC2)c(C)n1-c1ccc(F)cc1` [IU1], at USP14 H426E [3], the “Inhibition of Ub-AMC hydrolysis activity of USP14 H426E” value is “no inhibition”. Also, the “Mode of inhibition of USP14” value on USP14 was “competitive inhibitor”. In addition, on USP14 Y436A [1] (5 mM IU1), the “Inhibition of Ub-PA binding to USP14 Y436A” value is “could not be inhibited”. At IsoT, this compound registered an IC50 of 143 µM. Moreover, on USP7 F409A, the “Effect on Ub-AMC hydrolysis activity of USP7 F409A” value is listed as “decreased”. The “Inhibition of binding of Ub-PA to UCH-L3” value on UCH-L3 is reported as “did not inhibit”. For the same compound, the “Inhibition of binding of Ub-PA to USP7” value on USP7 is recorded as “did not inhibit”. On USP14 Y476A, the “Inhibition of Ub-AMC hydrolysis activity of USP14 Y476A” value is “no inhibition”. Besides, at USP14 Y436A [4], the “Inhibition of Ub-AMC hydrolysis activity of USP14 Y436A” value is given as “no inhibition”. Besides, the “Inhibition of formation of USP14/Ub-PA complex” value at USP14^CAT is “significantly inhibited”. In addition, the “Inhibition of binding of Ub-PA to UCH-L1” value at UCH-L1 is “did not inhibit”. The Solubility entry in “Solubility” was “poor solubility”. Further, at USP14 H426E [2] (5 mM IU1), the “Inhibition of Ub-PA binding to USP14 H426E” value is listed as “could not be inhibited”.
